{
  "source": "BindingDB's records for doi:10.1021/jm900472s",
  "about": "(Burnham Institute For Medical Research, 2009)",
  "target": "Apoptosis regulator Bcl-2 (Homo sapiens, UniProt P10415)",
  "sequence (P10415 whole entry)": "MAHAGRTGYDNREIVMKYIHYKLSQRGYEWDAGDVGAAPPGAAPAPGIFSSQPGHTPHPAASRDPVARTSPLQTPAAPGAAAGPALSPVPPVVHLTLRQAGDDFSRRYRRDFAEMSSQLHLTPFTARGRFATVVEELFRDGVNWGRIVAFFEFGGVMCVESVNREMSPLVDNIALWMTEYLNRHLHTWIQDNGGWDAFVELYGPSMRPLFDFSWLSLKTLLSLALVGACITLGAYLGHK",
  "assay": "Fluorescence Polarization Assay",
  "conditions": "pH 7.4; 23 °C",
  "experimental": "FPAs were performed using various concentrations of GST-Bcl-2 family proteins, incubated with FITC-conjugated peptide substrates in the presence of inhibitor compound. […] IC50 was determined by fitting the experimental data to a sigmoidal dose-response nonlinear regression model (SigmaPlot 10.0.1, Systat Software, Inc., San Jose, CA). Data reported are the mean of three independent experiments.",
  "data": [
    {"smiles": "Cc1cc2c(C(C)C)c(O)c(O)cc2c(O)c1-c1c(C)cc2c(C(C)C)c(O)c(O)cc2c1O", "note": "[Apogossypol]", "values": [
      {"measurement": "IC50", "value": 4.3, "unit": "µM"}
    ]}
  ]
}
